Data on one substance can be found in paper PMC7958298 (Journal of the American Chemical Society, 2020).

One series relates to pre-miRNA-21. Briefly: Circular dichroism melting of pre-miRNA-21. It counts as physicochemical. The conditions noted are these: pre-miRNA-21 alone vs with 39, SI Figure 3.
Series [1] has as its system hairpin derived from HIV RNA. Nature of the series: BLI binding to unrelated hairpin derived from HIV RNA. To be noted: SI Figure 1. A general note: Biolayer interferometry detects binding as a change in optical thickness at a sensor tip.
In a further series the test system is pre-miRNA-21 stem. Briefly: BLI binding to pre-miRNA-21 stem missing the hairpin loop. To be noted: relative to pre-miRNA-21 hairpin, SI Figure 1.

Regarding “Lys-DabG-hAlaA-Arg-Asp-DabA-Leu-hAlaG-Ala-Lys [Compound 39]”, the “shift in melting temperature of pre-miRNA-21 in the presence of peptide” value in the series with pre-miRNA-21 is on record as “no significant shift in melting temperature”. In series [1], the “binding to unrelated hairpin derived from HIV RNA” value is “high affinity”. For the same substance, the “reduction of affinity towards the pre-miRNA-21 stem, missing the hairpin loop” value in the series with pre-miRNA-21 stem was “over 50 fold”.
